Where two headings read alike, the source gives them in different places.
Legend:
[1] = system: HCV replicon RNA replication in Huh-7 luc/neo (Huh-Luc) cells; experiment: HCV replicon assay (stable replicon cell reporter assay, luciferase read-out); type: cell-based, HCV type 1b
Experimental: (§1) The compounds of formula (I) were tested for anti-HCV activity in an assay determining their activity against NS5b polymerase and in an HCV replicon assay
The compounds of the present invention were examined for activity in the inhibition of HCV RNA replication in a cellular assay. […] The cellular assay was based on a bicistronic expression construct, as described by Lohmann et al. (1999) Science vol. 285 pp. 110-113 with modifications described by Krieger et al. (2001) Journal of Virology 75: 4614-4624, in a multi-target screening strategy. In essence, the method was as follows.
The assay utilized the stably transfected cell line Huh-7 luc/neo (hereafter referred to as Huh-Luc). This cell line harbored an RNA encoding a bicistronic expression construct comprising the wild type NS3-NS5B regions of HCV type 1b translated from an Internal Ribosome Entry Site (IRES) from encephalomyocarditis virus (EMCV), preceded by a reporter portion (FfL-luciferase), and a selectable marker portion (neo^R, neomycine phosphotransferase). The construct was bordered by 5′ and 3′ NTRs (non-translated regions) from HCV type 1b. Continued culture of the replicon cells in the presence of G418 (neo^R) was dependent on the replication of the HCV RNA. The stably transfected replicon cells that expressed HCV RNA, which replicated autonomously and to high levels, encoding inter alia luciferase, were used for screening the antiviral compounds.
The replicon cells were plated in 384 well plates in the presence of the test and control compounds which were added in various concentrations. Following an incubation of three days, HCV replication was measured by assaying luciferase activity (using standard luciferase assay substrates and reagents and a Perkin Elmer ViewLux™ ultraHTS microplate imager). […] The inhibitory activity of the compound on luciferase activity was monitored on the Huh-Luc cells, enabling a dose-response curve for each test compound.

[2] = target: T1, HCV NS5B polymerase (His-tagged, C-terminal 21 amino acid deleted NS5B, HC-J4) (Hepatitis C virus genotype 1b, UniProt O92972); experiment: NS5b polymerase assay (biochemical RdRp assay, 3H-GTP incorporation, SPA beads); parameters: species or system HCV genotype 1b
T1 construct: The cDNA encoding NS5B amino acid 1-570 (HC-J4, genotype 1b); His tag (His6, from pET-21b) (C); made in house; host or cells: E. coli BL21 (DE3)
T1 sequence (O92972 2417-3000, looked up, stated change not applied): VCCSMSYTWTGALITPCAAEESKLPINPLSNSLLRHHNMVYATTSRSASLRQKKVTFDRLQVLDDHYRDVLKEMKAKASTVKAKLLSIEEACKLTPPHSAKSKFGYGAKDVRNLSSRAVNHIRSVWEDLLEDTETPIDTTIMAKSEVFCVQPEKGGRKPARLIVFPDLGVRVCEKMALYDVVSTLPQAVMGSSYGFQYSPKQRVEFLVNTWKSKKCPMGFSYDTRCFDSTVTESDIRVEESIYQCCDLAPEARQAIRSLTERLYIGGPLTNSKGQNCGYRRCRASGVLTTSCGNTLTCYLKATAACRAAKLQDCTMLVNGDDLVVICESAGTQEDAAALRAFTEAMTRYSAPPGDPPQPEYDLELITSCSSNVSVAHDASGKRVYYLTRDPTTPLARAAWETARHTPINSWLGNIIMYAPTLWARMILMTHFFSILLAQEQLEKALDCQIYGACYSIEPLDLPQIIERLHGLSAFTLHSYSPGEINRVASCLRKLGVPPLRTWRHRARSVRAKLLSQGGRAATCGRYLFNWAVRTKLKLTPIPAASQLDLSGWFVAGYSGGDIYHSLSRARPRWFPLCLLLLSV
Experimental: as §1
The cDNA encoding NS5B amino acid 1-570 (HC-J4, genotype 1b, pCV-J4L6S, genebank accession number AF054247) was subcloned into the Nhe I and Xho I restriction sites of pET-21b. Expression of the subsequent His-tagged C-terminal 21 amino acid deleted NS5B was performed as follows:
Following transformation in BL21 (DE3) competent cells, bacterial cells were grown in 22 liter LB/Amp media until to reach OD600=0.4-0.6. Protein expression was induced by addition of IPTG 0.4 mM, supplemented with 10 μM MgCl2, and incubated for 14-16 hrs at 20° C. Cells were harvested, resuspended in lysis buffer (20 mM Tris-HCl pH=7.5, 0.3 M NaCl, 10% glycerol, 0.1% NP40, 4 mM MgCl2, 14 mM beta-mercaptoethanol, with tablet of EDTA-free protease cocktail inhibitors) and lysed by sonification. The cell lysate was cleared by high-speed centrifugation (20K×g for 30 min), captured on Ni-NTA beads for 70 min at 4° C., and eluted with 25 mM Hepes pH 7.5, 0.5 M NaCl, 10% glycerol, 14 mM BME, 500 mM imidazole. The eluent was dialysed against 25 mM Hepes pH 7.5, 10% glycerol, 50 mM NaCl, 14 mM BME, after which the protein was further purified by heparin chromatography using the same buffer with 1 M NaCl for elution. Fractions containing pure protein were collected, dialyzed against storage buffer 25 mM Hepes pH=7.5, 300 mM NaCl, 10% glycerol, 14 mM BME), and flash-freezed in liquid nitrogen.
Measurement of HCV NS5B polymerization activity was performed by evaluating the amount of radiolabeled GTP incorporated by the enzyme in a newly synthesized RNA using heteropolymeric RNA template/primer. The highthroughput RdRp assay was carried out in 384-well plates using 200 nM enzyme, 0.1 μCi of ^3H GTP, 5 mM MgCl2, 600 nM GTP, 30 nM PolyC, 300 nM 5′-biotinylated oligo(rG13)/poly(rC) in 20 mM Tris pH 7.5, 21 mM KCl, 2.5 mM DTT, 16.7 mM NaCl and 0.17 mM EDTA. Test compounds were dissolved in dimethylsulfoxide. The test compounds were added to the preformed polymerase-template complex, and incubated at room temperature (RT) for 15 min before the addition of NTPs. The 30-μl reaction was terminated after 2 h at 25° C. upon addition of 30-μl PVT-SPA beads (Amersham Biosciences RPNQ0009, 5 mg/ml in 0.5 M EDTA).

[3] = Huh-Luc cells, three days incubation, luciferase activity, read-out: Replicon Assay EC50
[4] = 200 nM enzyme, 3H-GTP incorporation, 2 h at 25° C., read-out: NS5B Polymerase Assay IC50
[5] = Hepatitis C virus, Huh-7, 72 h, read-out: Replicon Assay EC50 (μM), Huh-Luc cells, incubation of three days, luciferase activity
[6] = NS5B Polymerase Assay IC50 (μM)
[7] = Hepatitis C virus, Huh-7, 72 h, read-out: Replicon Assay EC50, Huh-Luc cells, three days incubation, luciferase activity
[8] = NS5B Polymerase Assay IC50, 200 nM enzyme, 3H-GTP incorporation, 2 h at 25° C.

Structure (SMILES): COc1ccc(C2C3=C(CC(c4ccc(C)cc4)CC3=O)Nc3ccccc3N2C(=O)C(F)(F)F)cc1 (mixture of isomers) [compound 194]
- EC50 [1, 3]: 5.22 µM
- IC50 [2, 4]: > 33.3 µM

Structure (SMILES): COc1ccc(C2CC(=O)C3=C(C2)Nc2ccccc2N(C(=O)c2ccccc2)C3c2ccc(Cl)cc2)cc1OC (mixture of isomers) [compound 218]
- EC50 [1, 3]: 14.8 µM
- IC50 [2, 4]: > 33.3 µM

Structure (SMILES): COc1cc(C2Nc3ccccc3NC3=C2C(=O)CC(c2ccc(Cl)cc2)C3)cc(Br)c1O (centres unmarked) [compound 342]
- EC50 [1, 5]: 4.19 µM
- IC50 [2, 6]: > 42.7 µM

Structure (SMILES): O=C1CC(c2ccco2)CC2=C1C(c1ccco1)N(C(=O)C(F)(F)F)c1ccccc1N2 (centres unmarked) [compound 297]
- EC50 [1, 7]: 23.6 µM
- IC50 [2, 8]: > 42.7 µM

Structure (SMILES): Cc1ccc(C2CC(=O)C3=C(C2)Nc2ccccc2N(C(=O)C(F)(F)F)C3c2ccccc2Cl)cc1 (centres unmarked) [compound 169]
- EC50 [1, 3]: 17.7 µM
- IC50 [2, 4]: > 33.3 µM

Structure (SMILES): Cc1ccc(C2CC(=O)C3=C(C2)Nc2ccccc2NC3c2ccccc2F)cc1 (centres unmarked) [compound 412]
- EC50 [1, 5]: 16.7 µM
- IC50 [2, 6]: > 33.3 µM

Structure (SMILES): COc1cccc(C2C3=C(CC(C)(C)CC3=O)Nc3ccccc3N2C(=O)Cc2ccc(Cl)cc2)c1 (centres unmarked) [compound 34]
- EC50 [1, 7]: 6.81 µM
- IC50 [2, 8]: > 42.7 µM

Structure (SMILES): COc1ccc(C2CC(=O)C3=C(C2)Nc2ccccc2NC3c2ccccc2OC(C)C)cc1 (centres unmarked) [compound 333]
- IC50 [2, 6]: > 42.7 µM

Structure (SMILES): O=C1C[C@@H](c2ccc(Cl)cc2)CC2=C1[C@H](c1cc3c(cc1Br)OCO3)Nc1ccccc1N2 [compound 479]
- IC50 [2, 6]: > 42.7 µM

Structure (SMILES): CC1(C)CC(=O)C2=C(C1)Nc1ccccc1N(C(=O)Cc1ccccc1)C2c1ccc(-c2ccc([N+](=O)[O-])cc2)o1 (centres unmarked) [compound 238]
- IC50 [2, 8]: > 42.7 µM

Structure (SMILES): CC1(C)CC(=O)C2=C(C1)Nc1ccccc1N(C(=O)C(F)(F)F)C2/C(Br)=C/c1ccccc1 (centres unmarked) [compound 256]
- EC50 [1, 7]: 3.98 µM

Structure (SMILES): COc1ccc(OC)c(C2Nc3ccccc3NC3=C2C(=O)CC(c2ccccc2)C3)c1 (centres unmarked) [compound 351]
- IC50 [2, 6]: > 42.7 µM

Structure (SMILES): CC1(C)CC(=O)C2=C(C1)Nc1ccccc1N(C(=O)Cc1ccccc1)C2c1ccc(Br)cc1 (centres unmarked) [compound 95]
- IC50 [2, 8]: > 33.3 µM

Structure (SMILES): CCC(=O)N1c2ccccc2NC2=C(C(=O)CC(c3cccc([N+](=O)[O-])c3)C2)C1c1ccc(Cl)cc1 (mixture of isomers) [compound 211]
- IC50 [2, 4]: > 42.7 µM

Structure (SMILES): CC(=O)N1c2ccccc2NC2=C(C(=O)CC(C)(C)C2)C1c1ccc(OCc2ccccc2)c(Cl)c1 (single isomer, unassigned) [compound 303, 10-acetyl-11-[4-benzyloxy-3-chlorophenyl]-3,3-dimethyl-2,3,4,5,10,11-hexahydro-1H-dibenzo[b,e][1,4]diazepin-1-one]
- IC50 [2, 8]: 31.5 µM

Structure (SMILES): Cc1ccc(C2C3=C(CC(c4cccc(Cl)c4)CC3=O)Nc3ccccc3N2C(=O)C(F)(F)F)cc1 (centres unmarked) [compound 225]
- IC50 [2, 4]: > 42.7 µM

Structure (SMILES): CC1(C)CC(=O)C2=C(C1)Nc1ccccc1N(C(=O)NCc1ccccc1)C2c1ccc(Cl)cc1Cl (centres unmarked) [compound 159]
- EC50 [1, 3]: 9.59 µM

Structure (SMILES): COc1ccc(C2C3=C(CC(C)(C)CC3=O)Nc3ccccc3N2C(=O)c2ccccc2)cc1OCc1ccccc1 (centres unmarked) [compound 51]
- EC50 [1, 3]: 7.66 µM

Structure (SMILES): O=C1CC(c2cccc([N+](=O)[O-])c2)CC2=C1C(c1ccc(Cl)cc1)N(C(=O)C(F)(F)F)c1ccccc1N2 (mixture of isomers) [compound 214]
- IC50 [2, 4]: > 42.7 µM

Structure (SMILES): CCCCCC(=O)N1c2ccccc2NC2=C(C(=O)CC(c3ccco3)C2)C1c1cccc([N+](=O)[O-])c1 (centres unmarked) [compound 290]
- IC50 [2, 8]: > 42.7 µM

Structure (SMILES): COc1ccc(C2CC(=O)C3=C(C2)Nc2ccccc2NC3c2c(F)cccc2Cl)cc1 (centres unmarked) [compound 334]
- IC50 [2, 6]: > 42.7 µM

Structure (SMILES): CC(C)C(=O)N1c2ccccc2NC2=C(C(=O)CC(C)(C)C2)C1c1ccc([N+](=O)[O-])s1 (centres unmarked) [compound 239]
- IC50 [2, 8]: > 42.7 µM

Structure (SMILES): O=C1C[C@@H](c2ccc(Cl)cc2)CC2=C1[C@H](c1cc3c(cc1[N+](=O)[O-])OCO3)Nc1ccccc1N2 [compound 475]
- IC50 [2, 6]: > 42.7 µM

Structure (SMILES): CC1(C)CC(=O)C2=C(C1)Nc1ccccc1N(C(=O)NCc1ccoc1)C2c1ccc(Cl)cc1Cl (centres unmarked) [compound 158]
- EC50 [1, 3]: 31.1 µM

Structure (SMILES): CC1(C)CC(=O)C2=C(C1)Nc1ccccc1N(C(=O)c1ccccc1)C2c1ccc(-c2cccc([N+](=O)[O-])c2)o1 (centres unmarked) [compound 272]
- IC50 [2, 8]: > 42.7 µM
